Tests used:
[1] = Inhibition of NS5B polymerase in wild type HCV genotype 1b infected in human Huh7 replicon cells after 5 days by RT-PCR assay
[2] = target: RNA-directed RNA polymerase (Hepacivirus hominis, UniProt Q8JXU8); assay: Inhibition of NS5B polymerase in wild type HCV genotype 1b infected in human Huh7 replicon cells after 5 days by RT-PCR assay

| Structure (SMILES) | EC50 [1] | EC50 [2] |
| --- | --- | --- |
| Nc1nc2c(ncn2[C@@H]2O[C@H](CO)[C@@H](O)[C@]2(F)Br)c(=O)[nH]1 | > 10 µM |  |
| Nc1ncnc2c1ncn2[C@@H]1O[C@H](CO)[C@H](O)[C@@]1(F)Br |  | > 10 µM |
| CC(C)OC(=O)[C@H](C)NP(=O)(OC[C@H]1O[C@@H](n2ccc(N)nc2=O)[C@](F)(Br)[C@H]1O)Oc1ccccc1 (stereo not given in full) |  | 0.6 µM |
| C[C@@]1(O)[C@H](O)[C@@H](CO)O[C@H]1n1ccc(N)nc1=O |  | 2.8 µM |
| Nc1ccn([C@@H]2O[C@H](CO)[C@@H](O)[C@]2(F)Br)c(=O)n1 |  | 4 µM |
